# Read-outs that look alike come from different tables or passages of the source.
# Legend:
# KRAS (G12C)::SOS1 = KRAS (G12C)::SOS1 (Homo sapiens (Human), UniProt P01116, C118S/C51S/C80L/G12C); assay: KRAS::SOS1 AlphaScreen binding assay, KRAS G12C
# How it was run: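 KRAS 1-169 (biotinylated avi-tag) with GST-SOS1 564-1049 and 10 µM GDP in PBS/0.1% BSA/0.05% Tween 20: WT and G13D 10 nM each with 10 nM SOS1; G12D 10 nM and G12C 7.5 nM with 5 nM SOS1. After 30 min, glutathione acceptor/streptavidin donor beads were added for 60 min at RT in the dark, then AlphaScreen read; 4-parameter IC50.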
# NCI-H358 cells = assay: NCI-H358 CTG proliferation assay (120 h) (NSCLC, G12C); type: cell-based, human; details: Homo sapiens
# How it was run: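 IC50 values derive from four-parameter nonlinear regression of CellTiter-Glo viability (RLU relative to DMSO wells) after 120 h of exposure. Cells were plated in RPMI-1640 + 10% FCS at 2000 per well (assay 1) or 200 per well (assay 2). Untreated cells were measured at compound addition as T0.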
# [1] = assay 2, CTG, read-out: H358 (assay 2) IC50
# Chain of KRAS (G12C)::SOS1 (P01116 other isoform, or with tags, fused parts or gaps G12C/C51S/C80L/C118S): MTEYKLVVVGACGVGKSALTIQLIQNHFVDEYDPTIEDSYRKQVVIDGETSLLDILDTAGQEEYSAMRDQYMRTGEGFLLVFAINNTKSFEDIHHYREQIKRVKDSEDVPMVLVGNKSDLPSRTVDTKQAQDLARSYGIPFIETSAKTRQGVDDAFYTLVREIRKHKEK
Compound,IC50 (KRAS (G12C)::SOS1) [nM],IC50 (NCI-H358 cells; [1]) [nM],"IC50 (NCI-H358 cells; assay 1, CTG, read-out: H358 (assay 1) IC50) [nM]"
[2H]C([2H])([2H])N1C[C@H](F)C[C@H]1[C@H](C)Oc1cc(N2CCN(C([2H])([2H])[2H])C3(CC3)C2)nc(-c2noc3c2CCC[C@@]32CCCc3sc(N)c(C#N)c32)n1 [II-207],6,287,–
C[C@H](Oc1nc(-c2noc3c2CCC[C@@]32CCCc3sc(N)c(C#N)c32)nc(N2CCNC3(CC3)C2)c1F)[C@@H]1C[C@@H](F)CN1C [II-155],2,77,–
C[C@H](Oc1nc(-c2noc3c2CCC[C@@]32CCCc3sc(N)c(C#N)c32)nc(N2CCN(C)C3(CC3)C2)c1Cl)[C@@H]1C[C@@H](F)CN1C [II-176],15,1640,–
C[C@H]1CNCCCN1c1cc(-c2ccn(C)n2)nc(-c2noc3c2CCC[C@@]32CCCc3sc(N)c(C#N)c32)n1 [II-140],5,702,–
C[C@H](Oc1cc(N2Cc3cnn(C)c3C2)nc(-c2onc3c2CCC[C@@]32CCCc3sc(N)c(C#N)c32)n1)[C@@H]1CCCN1C [I-19],2,2160,–
CC(C)N1CCCN(c2cc(-c3ccn(C)n3)nc(-c3noc4c3CCC[C@@]43CCCc4sc(N)c(C#N)c43)n2)[C@@H](C)C1 [II-170],3,623,–
C[C@H]1CNCCCN1c1cc(-n2ccnc2)nc(-c2noc3c2CCC[C@@]32CCCc3sc(N)c(C#N)c32)n1 [II-142],5,10800,–
C[C@H](Oc1cc(N2CCN(C)C3(CC3)C2)nc(-c2noc3c2CCC[C@@]32CCCc3sc(N)c(C#N)c32)n1)[C@@H]1CCCN1C [II-171],5,–,–
C[C@H](Oc1cc(-n2cncn2)nc(-c2onc3c2CCC[C@@]32CCCc3sc(N)c(C#N)c32)n1)[C@@H]1CCCN1C [I-18],2,179,–
C[C@@H]1CN(c2nc(-c3noc4c3CCC[C@@]43CCCc4sc(N)c(C#N)c43)nc(O[C@@H](C)[C@@H]3C[C@@H](F)CN3C)c2F)CC2(CC2)N1 [II-158],2,58,–
C[C@H](Oc1cc(-c2cn(C)nn2)nc(-c2onc3c2CCC[C@@]32CCCc3sc(N)c(C#N)c32)n1)[C@@H]1CCCN1C [I-16],2,204,–
C[C@H](Oc1cc(-n2cncc3ccnc2-3)nc(-c2onc3c2CCC[C@@]32CCCc3sc(N)c(C#N)c32)n1)[C@@H]1CCCN1C [I-14],2,–,–
C[C@H](Oc1cc(N2CCN(C)C3(CCOC3)C2)nc(-c2noc3c2CCC[C@@]32CCCc3sc(N)c(C#N)c32)n1)[C@@H]1C[C@@H](F)CN1C (stereo partly drawn) [II-151],8,–,–
C[C@H](Oc1cc([C@H]2CCNC2)nc(-c2noc3c2CCC[C@@]32CCCc3sc(N)c(C#N)c32)n1)[C@@H]1CCCN1C [II-163],2,–,–
CNC1CCN(c2cc(O[C@@H](C)[C@@H]3CCCN3C)nc(-c3noc4c3CCC[C@@]43CCCc4sc(N)c(C#N)c43)n2)CC1 [II-214],9,–,–
C[C@H](Oc1cc(N2CCN(C)C3(CC3)C2)nc(-c2noc3c2CCC[C@@]32CCCc3sc(N)c(C#N)c32)n1)[C@@H]1C[C@@H](F)CN1C [II-149],8,–,–
C[C@H](Oc1cc(N2CC3COCC(C2)N3)nc(-c2noc3c2CCC[C@@]32CCCc3sc(N)c(C#N)c32)n1)[C@@H]1CCCN1C [II-160],7,–,–
CO[C@@H]1C[C@@H]([C@H](C)Oc2cc(-c3cnn(C)n3)nc(-c3onc4c3CCC[C@@]43CCCc4sc(N)c(C#N)c43)n2)N(C)C1 [I-17],4,–,–
C[C@H]1CNCCCN1c1nc(-c2onc3c2CCC[C@@]32CCCc3sc(N)c(C#N)c32)cc(C(F)(F)F)n1 [I-15],299,–,–
C[C@H](Oc1cc(-n2nccc2-c2ccncc2)nc(-c2noc3c2CCC[C@@]32CCCc3sc(N)c(C#N)c32)n1)[C@@H]1CCCN1C [II-131],–,277,–

# Next, values leading:
IC50 (KRAS (G12C)::SOS1) [nM],IC50 (NCI-H358 cells; [1]) [nM],"IC50 (NCI-H358 cells; assay 1, CTG, read-out: H358 (assay 1) IC50) [nM]",Compound
5,–,–,C[C@@H]1CN(c2cc(O[C@@H](C)[C@@H]3CCCN3C)nc(-c3noc4c3CCC[C@@]43CCCc4sc(N)c(C#N)c43)n2)CCN1 [II-161]
1,5,–,CO[C@H]1CCN(C)[C@@H]1[C@H](C)Oc1cc(-n2ccc(C(=O)N(C)C3COC3)n2)nc(-c2noc3c2CCC[C@@]32CCCc3sc(N)c(C#N)c32)n1 [II-199]
2,1,–,C[C@H](Oc1cc(-n2ccc(-c3cn([C@@H]4CCOC4)nn3)n2)nc(-c2noc3c2CCC[C@@]32CCCc3sc(N)c(C#N)c32)n1)[C@@H]1CCCN1C [II-211]
3,273,–,CO[C@H]1CCN(C)[C@@H]1[C@H](C)Oc1cc(N2CCN(C)C3(CC3)C2)nc(-c2noc3c2CCC[C@@]32CCCc3sc(N)c(C#N)c32)n1 [II-186]
2,255,–,C[C@H](Oc1cc(-n2cc(-c3cncs3)nn2)nc(-c2noc3c2CCC[C@@]32CCCc3sc(N)c(C#N)c32)n1)[C@@H]1CCCN1C [II-125]
2,374,–,C[C@H](Oc1cc(-n2cc3c(n2)CNC3)nc(-c2noc3c2CCC[C@@]32CCCc3sc(N)c(C#N)c32)n1)[C@@H]1C[C@@H](F)CN1C [II-154]
2,295,–,C[C@H](Oc1cc(-c2ccn(C[C@H]3CCOC3)n2)nc(-c2noc3c2CCC[C@@]32CCCc3sc(N)c(C#N)c32)n1)[C@@H]1CCCN1C [II-129]
2,28,25,C[C@H](Oc1cc(-n2ccc(-c3cnccn3)n2)nc(-c2noc3c2CCC[C@@]32CCCc3sc(N)c(C#N)c32)n1)[C@@H]1CCCN1C [II-130]
2,1,–,C[C@H](Oc1cc(-n2ccc(-c3cn([C@H]4CCOC4)nn3)n2)nc(-c2noc3c2CCC[C@@]32CCCc3sc(N)c(C#N)c32)n1)[C@@H]1CCCN1C [II-212]
1,6,–,CO[C@H]1CCN(C)[C@@H]1[C@H](C)Oc1cc(-n2ccc(C(N)=O)n2)nc(-c2noc3c2CCC[C@@]32CCCc3sc(N)c(C#N)c32)n1 [II-201]
2,31,–,COc1c(O[C@@H](C)[C@@H]2CCCN2C)nc(-c2noc3c2CCC[C@@]32CCCc3sc(N)c(C#N)c32)nc1-n1ccc(C(N)=O)n1 [II-159]
1,2,–,C[C@H](Oc1cc(-n2ccc(C(=O)N[C@@H]3CCOC3)n2)nc(-c2noc3c2CCC[C@@]32CCCc3sc(N)c(C#N)c32)n1)[C@@H]1CCCN1C [II-192]
2,95,–,CO[C@H]1CCN(C)[C@@H]1[C@H](C)Oc1cc(N2CCNC3(CC3)C2)nc(-c2noc3c2CCC[C@@]32CCCc3sc(N)c(C#N)c32)n1 [II-184]
2,324,–,C[C@H](Oc1cc(-n2cc(C(=O)N(C)C)nn2)nc(-c2noc3c2CCC[C@@]32CCCc3sc(N)c(C#N)c32)n1)[C@@H]1CCCN1C [II-132]
2,135,–,CO[C@@H]1C[C@@H]([C@H](C)Oc2cc(N3CCNC4(CC4)C3)nc(-c3noc4c3CCC[C@@]43CCCc4sc(N)c(C#N)c43)n2)N(C)C1 [II-187]
1,2,–,CO[C@H]1CCN(C)[C@@H]1[C@H](C)Oc1cc(-n2ccc(C(=O)N[C@@H](C)c3ccccn3)n2)nc(-c2noc3c2CCC[C@@]32CCCc3sc(N)c(C#N)c32)n1 [II-196]
1,3,–,CC(C)NC(=O)Cc1ccn(-c2cc(O[C@@H](C)[C@@H]3CCCN3C)nc(-c3noc4c3CCC[C@@]43CCCc4sc(N)c(C#N)c43)n2)n1 [II-182]
2,112,–,C[C@H](Oc1cc(-n2cc3c(n2)CN(C)C3)nc(-c2noc3c2CCC[C@@]32CCCc3sc(N)c(C#N)c32)n1)[C@@H]1CCCN1C [II-174]
2,5,–,C[C@H](Oc1cc(-n2cc3ccn([C@@H]4CCOC4)c(=O)c3n2)nc(-c2noc3c2CCC[C@@]32CCCc3sc(N)c(C#N)c32)n1)[C@@H]1CCCN1C [II-203]
2,–,–,C[C@H](Oc1cc(-n2cc3c(n2)CNC3)nc(-c2noc3c2CCC[C@@]32CCCc3sc(N)c(C#N)c32)n1)[C@@H]1CCCN1C [II-168]
8,–,–,CC(C)[C@@H]1CN(c2cc(O[C@@H](C)[C@@H]3CCCN3C)nc(-c3noc4c3CCC[C@@]43CCCc4sc(N)c(C#N)c43)n2)CCN1 [II-166]
2,–,–,C[C@H](O)Cn1ncc(-c2cc(O[C@@H](C)[C@@H]3CCCN3C)nc(-c3noc4c3CCC[C@@]43CCCc4sc(N)c(C#N)c43)n2)n1 [II-134]
3,–,–,C[C@H](Oc1cc(N2CCN[C@@H](C)C2)nc(-c2noc3c2CCC[C@@]32CCCc3sc(N)c(C#N)c32)n1)[C@@H]1CCCN1C [II-162]
5,–,–,C[C@H](Oc1cc(N2C[C@H](C)N(C)[C@@H](C)C2)nc(-c2noc3c2CCC[C@@]32CCCc3sc(N)c(C#N)c32)n1)[C@@H]1CCCN1C [II-173]
2,–,–,C[C@H](Oc1cc(-n2cc3c(n2)CCN(C)C3)nc(-c2noc3c2CCC[C@@]32CCCc3sc(N)c(C#N)c32)n1)[C@@H]1CCCN1C [II-141]
3,–,–,C[C@H](Oc1cc(-c2ccn(C)n2)nc(-c2noc3c2CCC[C@@]32CCCc3sc(N)c(C#N)c32)n1)[C@@H]1C[C@H](F)CN1C [II-144]
2,–,–,C[C@H](Oc1cc(N2CCN(C)C3(COC3)C2)nc(-c2noc3c2CCC[C@@]32CCCc3sc(N)c(C#N)c32)n1)[C@@H]1C[C@@H](F)CN1C [II-148]
2,–,–,CO[C@H]1CCN(C)[C@@H]1[C@H](C)Oc1cc(-n2ccc(CC(=O)NC(C)C)n2)nc(-c2noc3c2CCC[C@@]32CCCc3sc(N)c(C#N)c32)n1 [II-183]
5,–,–,C[C@H](Oc1cc(N2C[C@@H]3[C@@H](N)[C@@H]3C2)nc(-c2noc3c2CCC[C@@]32CCCc3sc(N)c(C#N)c32)n1)[C@@H]1CCCN1C [II-167]
